This note sets out measurements from PubChem BioAssay (NCI).

Among the test systems are TK-10 renal; MOLT-4 leukemia; CCRF-CEM leukemia; MALME-3M melanoma; MDA-MB-435; COLO 205 colon; PC-3 prostate; OVCAR-3 ovarian; SN12C renal; SK-OV-3 ovarian; HL-60(TB) leukemia; LOX IMVI melanoma; U251 CNS; HCT-116 colon; HCC-2998 colon; SR leukemia; NCI-H460 lung; HOP-92 NSCLC; A498 renal.
Assay in all cases: NCI anticancer screen, dose series, 48 h

The structures appear in SMILES notation.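 All cell lines were grown in 96-well plates and treated with compound for 48 hours. TGI is the concentration that stops growth completely.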 Some results are limits rather than exact numbers.

Regarding `N#CC(C#N)=Cc1ccc2c(c1)OC(Cl)O2` (centres undefined), the TGI in the test on TK-10 renal is 68.1 µM; in the test on MOLT-4 leukemia, over 100 µM; in the test with CCRF-CEM leukemia, over 100 µM; in the test with MALME-3M melanoma it was 34.8 µM; in the test with MDA-MB-435 it was 35.7 µM; in the test on COLO 205 colon, 52 µM. Moreover, the TGI stood at 47.8 µM with PC-3 prostate; 52.8 µM with OVCAR-3 ovarian; 51.2 µM in the test on SN12C renal; 61.5 µM in the test on SK-OV-3 ovarian; 44.1 µM with HL-60(TB) leukemia; 38.2 µM with LOX IMVI melanoma. For the same molecule, the TGI with U251 CNS was determined as 41.4 µM; in the test with HCT-116 colon, 38.6 µM.
On to `NNC(=O)c1ccc(-n2nnc(C(=O)NN)c2C(=O)NN)cc1`, for which the TGI in the test with TK-10 renal, in the test on MOLT-4 leukemia, with HCC-2998 colon, with CCRF-CEM leukemia, in the test with MALME-3M melanoma and in the test on MDA-MB-435 was over 100 µM each time. In addition, the TGI in the test on SR leukemia, in the test on COLO 205 colon, with PC-3 prostate, in the test with NCI-H460 lung, with OVCAR-3 ovarian and with SN12C renal was over 100 µM in each case. The TGI in the test with HOP-92 NSCLC, in the test with HL-60(TB) leukemia, with LOX IMVI melanoma, in the test on U251 CNS and in the test on HCT-116 colon was over 100 µM throughout.
Take `Cc1ccc(-c2nc3ccc(Cl)cc3[nH]2)cc1`: the TGI in the test with TK-10 renal, in the test on MOLT-4 leukemia, in the test on HCC-2998 colon, in the test with CCRF-CEM leukemia, in the test with MALME-3M melanoma and in the test with MDA-MB-435 was over 100 µM in each case. Besides, the TGI with SR leukemia, with COLO 205 colon, in the test with PC-3 prostate, in the test with NCI-H460 lung, in the test on OVCAR-3 ovarian and in the test on SN12C renal was over 100 µM throughout. For the same molecule, the TGI in the test with HOP-92 NSCLC, with SK-OV-3 ovarian, in the test with HL-60(TB) leukemia, in the test with LOX IMVI melanoma, in the test on U251 CNS and in the test on HCT-116 colon was over 100 µM in each case.
`COc1cccc(/C=C2/Sc3scc(-c4ccccc4)[n+]3C2=O)c1O`: the TGI was 68.4 µM with TK-10 renal; 49.5 µM in the test with MOLT-4 leukemia; 30.7 µM in the test with HCC-2998 colon; 30.4 µM with CCRF-CEM leukemia; over 100 µM in the test on MDA-MB-435; over 100 µM in the test on COLO 205 colon. Further, the TGI in the test on PC-3 prostate was over 100 µM; with NCI-H460 lung it was 37.9 µM; in the test with OVCAR-3 ovarian it was 95.3 µM; in the test on SN12C renal it was 36.8 µM; in the test with HOP-92 NSCLC, 51.2 µM; in the test with SK-OV-3 ovarian, 70.4 µM. Besides, the TGI in the test on HL-60(TB) leukemia is 39.6 µM; in the test with LOX IMVI melanoma, 36.4 µM; with U251 CNS it was 43.3 µM; with HCT-116 colon, 29.2 µM.
`CCCC(=O)NC1=C(NCC)C(=O)c2ccccc2C1=O`: the TGI with TK-10 renal is over 100 µM; with MOLT-4 leukemia it was over 100 µM; in the test with HCC-2998 colon, over 100 µM; with CCRF-CEM leukemia, over 100 µM; with MALME-3M melanoma it was over 100 µM; in the test on MDA-MB-435, 78.1 µM. Also, the TGI in the test on SR leukemia, in the test on COLO 205 colon, in the test on PC-3 prostate, with NCI-H460 lung, in the test with OVCAR-3 ovarian and in the test with SN12C renal was over 100 µM each time. The TGI in the test with HOP-92 NSCLC, in the test with SK-OV-3 ovarian, in the test with HL-60(TB) leukemia, in the test with U251 CNS and in the test on HCT-116 colon was over 100 µM in each case.
Regarding `COc1ccc2[nH]c3c(c2c1)CCn1c-3nc2ccccc2c1=O`, the TGI with TK-10 renal, with MOLT-4 leukemia, in the test on HCC-2998 colon, with CCRF-CEM leukemia, in the test on MDA-MB-435 and in the test with SR leukemia was over 25 µM in each case. Further, the TGI with COLO 205 colon, with PC-3 prostate, in the test with NCI-H460 lung, with SN12C renal, in the test with SK-OV-3 ovarian and in the test on HL-60(TB) leukemia was over 25 µM in each case. The TGI in the test with U251 CNS and in the test on HCT-116 colon was over 25 µM throughout.
On to `COC(=O)C1CC2(CCC1=O)Cc1ccccc1C2=O` (centres undefined), for which the TGI in the test with TK-10 renal, with MOLT-4 leukemia, in the test on HCC-2998 colon, in the test on CCRF-CEM leukemia, in the test on MALME-3M melanoma and in the test with SR leukemia was over 100 µM throughout. Also, the TGI in the test on COLO 205 colon, with PC-3 prostate, in the test on NCI-H460 lung, in the test on SN12C renal, with SK-OV-3 ovarian and in the test with HL-60(TB) leukemia was over 100 µM each time. For the same molecule, the TGI in the test on LOX IMVI melanoma, in the test on U251 CNS and in the test on HCT-116 colon was over 100 µM in each case.
As for `CCC1(CC)CC(=NNS(=O)(=O)c2ccc(C)cc2)C1`, the TGI with TK-10 renal, with MOLT-4 leukemia, with HCC-2998 colon, with CCRF-CEM leukemia, in the test on MALME-3M melanoma and in the test with MDA-MB-435 was over 100 µM throughout. Besides, the TGI in the test with COLO 205 colon, in the test with A498 renal, with PC-3 prostate, with NCI-H460 lung, in the test on OVCAR-3 ovarian and in the test with SN12C renal was over 100 µM each time. Also, the TGI with HOP-92 NSCLC, in the test on SK-OV-3 ovarian, in the test on HL-60(TB) leukemia, in the test on LOX IMVI melanoma, in the test on U251 CNS and in the test on HCT-116 colon was over 100 µM in each case.
